Each block holds one compound with its values, some of them ahead of it. Activity calls are given as the source filed them. No cut-off for these calls is given here.
Assays:
[1] = molecular target: T1, Epidermal growth factor receptor (Homo sapiens, UniProt P00533); test: Inhibition of recombinant EGFR by ELISA
[2] = molecular target: T1, Epidermal growth factor receptor; test: Reversible inhibitory activity of EGF-induced EGFR phosphorylation in human A431 cells at 10 to 100 nM by immunoblot analysis; details: A-431
[3] = test system: A-431; test: cells; format: functional; details: Homo sapiens, A-431, 72 h
Description: Growth inhibition of human A431 cells after 72 hrs by MTT assay

[4] = test system: A-431; test: Cell cycle arrest in human A431 cells by accumulation at G1 phase at 1 uM after 24 hrs by propidium iodide staining-based flow cytometry (reference value: 39.8+/-0.2%); format: functional
[5] = test system: A-431; test: Cell cycle arrest in human A431 cells by accumulation at G1 phase at 3 uM after 24 hrs by propidium iodide staining-based flow cytometry (reference value: 39.8+/-0.2%); format: functional
[6] = test system: A-431; test: Cell cycle arrest in human A431 cells by accumulation at S phase at 1 uM after 24 hrs by propidium iodide staining-based flow cytometry (reference value: 48.5+/-4.2%); format: functional
[7] = test system: A-431; test: Cell cycle arrest in human A431 cells by accumulation at S phase at 3 uM after 24 hrs by propidium iodide staining-based flow cytometry (reference value: 48.5+/-4.2%); format: functional
[8] = test system: A-431; test: Cell cycle arrest in human A431 cells by accumulation at G2/M phase at 1 uM after 24 hrs by propidium iodide staining-based flow cytometry (reference value: 11.1+/-3.1%); format: functional
[9] = test system: A-431; test: Cell cycle arrest in human A431 cells by accumulation at G2/M phase at 3 uM after 24 hrs by propidium iodide staining-based flow cytometry (reference value: 11.1+/-3.1%); format: functional
[10] = test system: A-431; test: Induction of apoptosis in human A431 cells assessed as pre-necrotic cells level at 3 uM after 12 hrs by annexin V/propidium iodide staining-based flow cytometry (Rvb=0.9+/-0.1%); format: functional
[11] = test system: A-431; test: Induction of apoptosis in human A431 cells assessed as late apoptotic/necrotic cells level at 3 uM after 12 hrs by annexin V/propidium iodide staining-based flow cytometry (Rvb=0.6+/-0.1%); format: functional
[12] = test system: A-431; test: Induction of apoptosis in human A431 cells assessed as viable cells level at 3 uM after 12 hrs by annexin V/propidium iodide staining-based flow cytometry (reference value: 95.4+/-0.5%); format: functional
[13] = test system: A-431; test: Induction of apoptosis in human A431 cells assessed as early apoptotic cells level at 3 uM after 12 hrs by annexin V/propidium iodide staining-based flow cytometry (Rvb=3.1+/-0.5%); format: functional

T1 sequence (P00533 whole entry): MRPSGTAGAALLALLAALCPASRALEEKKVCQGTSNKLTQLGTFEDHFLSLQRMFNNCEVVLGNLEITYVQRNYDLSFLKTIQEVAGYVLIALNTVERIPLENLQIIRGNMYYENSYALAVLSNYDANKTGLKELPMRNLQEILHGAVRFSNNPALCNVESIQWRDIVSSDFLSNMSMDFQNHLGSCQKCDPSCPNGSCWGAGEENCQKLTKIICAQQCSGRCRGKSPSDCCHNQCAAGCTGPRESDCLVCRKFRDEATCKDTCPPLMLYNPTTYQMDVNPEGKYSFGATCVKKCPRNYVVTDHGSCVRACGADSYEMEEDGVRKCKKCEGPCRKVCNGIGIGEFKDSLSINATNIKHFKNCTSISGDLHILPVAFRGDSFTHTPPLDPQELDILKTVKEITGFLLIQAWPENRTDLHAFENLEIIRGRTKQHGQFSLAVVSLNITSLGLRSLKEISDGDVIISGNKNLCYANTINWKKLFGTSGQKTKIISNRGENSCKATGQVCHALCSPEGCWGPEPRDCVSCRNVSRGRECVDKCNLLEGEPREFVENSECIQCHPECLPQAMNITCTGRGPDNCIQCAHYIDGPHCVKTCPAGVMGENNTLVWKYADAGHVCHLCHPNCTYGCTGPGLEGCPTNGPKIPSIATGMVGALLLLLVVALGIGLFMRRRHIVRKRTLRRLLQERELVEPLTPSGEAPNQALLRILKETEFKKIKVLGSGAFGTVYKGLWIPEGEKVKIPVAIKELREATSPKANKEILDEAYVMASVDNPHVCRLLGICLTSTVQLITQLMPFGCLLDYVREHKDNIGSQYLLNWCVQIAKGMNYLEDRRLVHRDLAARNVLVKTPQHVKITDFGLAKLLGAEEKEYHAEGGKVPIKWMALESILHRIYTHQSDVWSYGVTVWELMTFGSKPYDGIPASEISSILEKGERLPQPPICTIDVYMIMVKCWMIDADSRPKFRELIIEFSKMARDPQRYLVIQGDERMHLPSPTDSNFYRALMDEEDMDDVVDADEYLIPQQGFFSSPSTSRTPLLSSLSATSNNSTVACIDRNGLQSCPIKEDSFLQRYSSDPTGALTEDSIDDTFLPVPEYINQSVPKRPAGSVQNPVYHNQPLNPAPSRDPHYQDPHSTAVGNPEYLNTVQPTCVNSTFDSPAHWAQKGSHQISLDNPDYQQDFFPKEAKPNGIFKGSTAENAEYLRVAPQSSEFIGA

SMILES: C#CCCCOc1cc2c(Nc3cccc(Cl)c3)ncnc2cc1OC
- IC50 [1]: 17.7 nM

SMILES: C#CCOc1cc2c(Nc3ccc(F)c(Cl)c3)ncnc2cc1OC
- IC50 [1]: 14.8 nM
- inhibition [2]: Active

SMILES: C#CCOc1cc2c(Nc3cccc(Cl)c3)ncnc2cc1OC
- IC50 [1]: 25.9 nM
- inhibition [2]: Active

SMILES: C#Cc1cc2c(Nc3ccc(F)c(Cl)c3)ncnc2cc1OC
- IC50 [1]: > 1000 nM

Second part, led by results:

- IC50 [1]: 32.7 nM
SMILES: C#CCCCCCOc1cc2c(Nc3ccc(F)c(Cl)c3)ncnc2cc1OC

- IC50 [1]: 2.53 nM
- GI50 [3]: 221 nM
SMILES: C#CCCCOc1cc2c(Nc3ccc(F)c(Cl)c3)ncnc2cc1OC
- Activity [4]: 53.5%
- Activity [5]: 65.3%
- Activity [6]: 34.7%
- Activity [7]: 22.1%
- Activity [8]: 11.7%
- Activity [9]: 12.5%
- Activity [10]: 1.1%
- Activity [11]: 4.2%
- Activity [12]: 81.2%
- Activity [13]: 13.5%

- IC50 [1]: 106 nM
SMILES: CCCCCCOc1cc2c(Nc3ccc(F)c(Cl)c3)ncnc2cc1OC

- IC50 [1]: 32.6 nM
SMILES: C=CCCCCOc1cc2c(Nc3ccc(F)c(Cl)c3)ncnc2cc1OC
